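1) Cells in 96-well plates. 2) Compound, 48 h, 5 concentrations. 3) Linear interpolation between surrounding doses. 4) Unreached endpoint = highest concentration. The concentration for 50% growth inhibition is given as GI50. TGI: total growth inhibition.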
How the values were obtained:
Test in all cases: growth of human tumour cells (NCI), 48 h
MCF7 breast = system: MCF7 breast
RXF 393 renal = system: RXF 393 renal
DU-145 prostate = system: DU-145 prostate
SF-295 CNS = system: SF-295 CNS
SNB-19 CNS = system: SNB-19 CNS
SK-MEL-2 melanoma = system: SK-MEL-2 melanoma
HCT-15 colon = system: HCT-15 colon
SF-539 CNS = system: SF-539 CNS
ACHN renal = system: ACHN renal
MDA-MB-435 = system: MDA-MB-435

SMILES	GI50 (MCF7 breast) [µM]	TGI (MCF7 breast) [µM]	GI50 (RXF 393 renal) [µM]	TGI (RXF 393 renal) [µM]	GI50 (DU-145 prostate) [µM]	TGI (DU-145 prostate) [µM]	GI50 (SF-295 CNS) [µM]	TGI (SF-295 CNS) [µM]	GI50 (SNB-19 CNS) [µM]	TGI (SNB-19 CNS) [µM]	GI50 (SK-MEL-2 melanoma) [µM]	TGI (SK-MEL-2 melanoma) [µM]	GI50 (HCT-15 colon) [µM]	TGI (HCT-15 colon) [µM]	GI50 (SF-539 CNS) [µM]	TGI (SF-539 CNS) [µM]	GI50 (ACHN renal) [µM]	TGI (ACHN renal) [µM]	GI50 (MDA-MB-435) [µM]	TGI (MDA-MB-435) [µM]
COc1ccc(CN2c3ccccc3Sc3ccccc32)cc1O	0.355	13.4	0.338	15.6	0.374	15	0.225	0.646	0.771	26.9	0.333	19.9	0.369	11.8	0.27	0.823	1.56	21.8		
N#C/C(=C/C=C/c1cccc(Cl)c1)S(=O)c1ccccc1 (configuration not stated)			0.233	0.568	0.393	1.56	1.3	2.88	0.684	2.52	1.62	3.66	0.197	0.56	0.281	0.882	0.34	1.29	0.448	1.69
CCCCS(=O)(=O)c1cc(Nc2ccc(O)c3c2C(=O)c2ccccc2C3=O)ccc1C	1.25	> 100	14.6	> 100	5.01	> 100	5.77	> 100	13.4	> 100	26.5	> 100	6.03	> 100	> 100	> 100	> 100	> 100		
O=C1N=C2N=C(c3ccc(Cl)cc3)N(c3ccc(Cl)cc3)N2Sc2ccccc21				> 100				> 100		> 100		> 100		> 100		> 100		> 100		
O=C1c2ccccc2-c2c1c1ccccc1c(=O)n2CCNCCNCCNCCNCCn1c2c(c3ccccc3c1=O)C(=O)c1ccccc1-2	0.0501	1.71			0.161	1.57					0.692	2.4	0.568	2.56	0.0446	0.314	0.0446	0.58		
O=C1C(=O)N(c2cc(Cl)ccc2Cl)C(=O)C(=O)C1c1nc2ccccc2s1				> 100				> 100		> 100		> 100		> 100		> 100		> 100		
COc1ccc(/C=C(\C#N)c2cc(OC)c(OC)c(OC)c2)cc1	0.0272	> 50.3	< 0.0141	> 90.7			< 0.0156	50.7	0.0558	> 100	0.0356	> 100	0.0359	> 100	0.0199	> 100	0.0478	> 100		
CCCCn1c(-c2ccccc2)cs/c1=N\NC(=O)Cn1c(C)nc2ccccc21				94.1				> 100		> 100		> 100		> 100		> 100		> 100		
O=S1(=O)CCC2=CC(C(F)(F)F)=CC(C(F)(F)F)=CN21				6.01		5.46		4.8		6.08		4.1		1.5		3.8		1.11		4.77
O=C(NCCCN1CCN(CCCNC(=O)Nc2cc(Cl)ccc2Cl)CC1)Nc1cc(Cl)ccc1Cl				> 100				> 100		> 100		> 100		> 100		> 100		> 100		
C[C@]12CCC3c4ccc(O)cc4CCC3C1CC[C@@H]2NC(=O)/C=C/c1ccc(O)c(O)c1 (some centres not stated)	16.1	49.1			13.1	32.5	18.5	44.8	13.7	33.9	20.6	51.3	4.89	19			12.4	25.1	13.6	39.1
CCNC(=O)COc1ccc(Cl)c(C)c1				> 100				> 100		> 100		> 100		> 100		> 100		> 100		
Nc1ccccc1SC(/C=C/NNC1=NC(c2ccccc2)C(c2ccccc2)=NN1)c1ccccc1 (configuration not stated)				27.1				24.5		43.8		33		32		25.9		28.6		
COc1cc(C2CC(c3ccc(Cl)cc3)=NN2C(C)=O)ccc1Oc1ccnc2cc(Cl)ccc12 (configuration not stated)	> 100	> 100	3.32	20.1	> 100	> 100	4.22	> 100	> 100	> 100	15.9	82.8	> 100	> 100					> 100	> 100
COC(OC)c1cccnc1C				> 100				> 100		> 100		> 100		> 100		> 100		> 100		

Reference: PubChem BioAssay (NCI)
